Measured values taken from US8188080B2 (Sanford-Burnham Medical Research Institute, priority 2007, dated 2012).
Read-outs that look alike come from different tables or passages of the source.

Biological target: T1, CD45 (Homo sapiens, UniProt P08575)
T1 sequence (P08575 26-1306): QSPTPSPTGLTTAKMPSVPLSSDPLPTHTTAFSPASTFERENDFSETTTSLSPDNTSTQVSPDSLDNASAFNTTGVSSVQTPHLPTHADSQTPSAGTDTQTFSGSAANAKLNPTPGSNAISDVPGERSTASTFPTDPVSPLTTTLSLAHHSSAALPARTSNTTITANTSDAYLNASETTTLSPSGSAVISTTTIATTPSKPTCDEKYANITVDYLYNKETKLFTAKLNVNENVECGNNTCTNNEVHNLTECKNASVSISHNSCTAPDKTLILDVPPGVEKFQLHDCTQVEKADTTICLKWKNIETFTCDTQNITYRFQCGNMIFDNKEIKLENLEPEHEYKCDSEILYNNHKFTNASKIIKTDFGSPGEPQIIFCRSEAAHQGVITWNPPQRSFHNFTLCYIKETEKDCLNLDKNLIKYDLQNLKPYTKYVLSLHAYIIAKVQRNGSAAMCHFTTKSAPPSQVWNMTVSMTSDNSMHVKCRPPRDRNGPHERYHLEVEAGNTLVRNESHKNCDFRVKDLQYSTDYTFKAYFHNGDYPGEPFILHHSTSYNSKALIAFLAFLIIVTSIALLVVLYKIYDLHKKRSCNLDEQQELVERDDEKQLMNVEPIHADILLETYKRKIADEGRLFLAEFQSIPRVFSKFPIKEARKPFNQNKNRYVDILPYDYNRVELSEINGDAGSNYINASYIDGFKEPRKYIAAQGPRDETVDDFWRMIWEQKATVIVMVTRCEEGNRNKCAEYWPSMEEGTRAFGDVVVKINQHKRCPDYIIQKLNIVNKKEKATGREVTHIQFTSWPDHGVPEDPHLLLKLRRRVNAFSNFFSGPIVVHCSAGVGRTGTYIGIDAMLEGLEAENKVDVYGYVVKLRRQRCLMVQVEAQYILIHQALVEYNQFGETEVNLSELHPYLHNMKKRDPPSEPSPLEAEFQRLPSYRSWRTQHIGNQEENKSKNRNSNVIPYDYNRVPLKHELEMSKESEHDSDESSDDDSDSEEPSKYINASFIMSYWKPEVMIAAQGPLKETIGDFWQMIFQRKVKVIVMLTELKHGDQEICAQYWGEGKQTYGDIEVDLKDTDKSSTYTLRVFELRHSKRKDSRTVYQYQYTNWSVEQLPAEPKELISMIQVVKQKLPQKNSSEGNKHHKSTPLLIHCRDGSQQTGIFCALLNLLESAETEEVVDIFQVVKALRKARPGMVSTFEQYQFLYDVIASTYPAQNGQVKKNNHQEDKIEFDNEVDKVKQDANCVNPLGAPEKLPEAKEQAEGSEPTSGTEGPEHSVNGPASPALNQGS
Test: PTP-catalyzed hydrolysis of DiFMUP, IC50 determination (CD45)
Format: biochemical
Protocol: The PTP-catalyzed hydrolysis of 6,8-difluoro-4-methylumbelliferyl phosphate (DiFMUP) in the presence of the test compound is assayed at 30° C. in a 60 μL 96 well format reaction system in 0.15 M Bis-Tris, pH 6.0 assay buffer having an ionic strength of 150 mM (adjusted with NaCl) and containing 1 mM dithiotreitol and 5% DMSO. At various concentrations of the compound, the initial rate at fixed DiFMUP concentration (equal to the corresponding Km value for each PTP) was determined using a FLx800 micro plate reader (Bio-Tek Instruments, Inc.), an excitation wave length of 360 nm and measuring the emission of the fluorescent reaction product 6,8-difluoro-7-hydroxy-4-methylcoumarin (DiFMU) at 460 nm. The nonenzymatic hydrolysis of the substrate was corrected by measuring the control without addition of enzyme. The IC50 value was determined by plotting the relative activity versus inhibitor concentrations and fitting to Equation 1 using the software GraphPad Prism™ (GraphPad Software, Inc.).
[formula] In this case, Vi, is the reaction velocity when the inhibitor concentration is [I], V0 is the reaction velocity with no inhibitor and IC50=Ki+Ki[S]/Km.

[1] = Table II, DiFMUP at Km, pH 6.0, 30° C.

IC50 [nM] | Compound | IC50 [1] [nM]
– | O=C1/C(=C/c2cn(-c3ccccc3)nc2-c2ccc(OCc3ccccc3)cc2)SC(=S)N1CCS(=O)(=O)O [Compound 9] | 609
– | O=C1/C(=C/c2cn(-c3ccccc3)nc2-c2ccc(OCc3ccc(Cl)cc3)cc2)SC(=S)N1CCS(=O)(=O)O [Compound 10, (Z)-2-[5-({3-[4-(4-chlorobenzyloxy)phenyl]-1-phenyl-1H-pyrazol-4-yl}methylene)-4-oxo-2-thioxothiazolidin-3-yl]ethane sulfonic acid] | 460
303 | O=C1/C(=C/c2cn(-c3ccccc3)nc2-c2ccc(S(=O)(=O)N3CCOCC3)cc2)SC(=S)N1CCS(=O)(=O)O [Compound 14] | –
